Data published in patent US5324747A, “N-substituted anilines, inhibitors of phospholipases A2” (Hoffmann-La Roche Inc., priority 1992, dated 1994).
pIC50: −log10 of the molar value.

Key:
HSF-PLA2 = target: T1, HSF-PLA2 (Homo sapiens, UniProt P14555); assay: Assay for Inhibition of HSF-PLA2 In Vitro; type: biochemical; conditions: for pIC50: read-out: Inhib of HSF-PLA2 IC50
T1 construct: extracellular enzyme obtained from human synovial fluid (HSF-PLA2); from tissue; host or cells: pooled human synovial fluid, added at 0.1% (v/v)
T1 sequence (P14555 21-144): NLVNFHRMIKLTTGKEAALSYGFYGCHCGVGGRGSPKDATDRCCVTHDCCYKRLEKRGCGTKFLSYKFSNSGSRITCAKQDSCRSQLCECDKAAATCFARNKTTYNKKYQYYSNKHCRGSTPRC
Protocol: Assay for Inhibition of HSF-PLA2 In Vitro
The PLA2 used in this test is the extracellular enzyme obtained from human synovial fluid (HSF-PLA2).
The optimal conditions which were developed for the assay of HSF-PLA2 inhibitors are summarized as follows. […] The reaction was initiated by the addition of HSF-PLA2 and duplicate samples of the mixture were incubated in 13×100 mm glass tubes with shaking for 30 minutes at 37° C. […] The extraction of lipids from the stopped reaction mixture was conducted by the further additions of […] of chloroform and 1 ml of water with mixing. After centrifuging, the lower chloroform phase was transferred to smaller glass tubes and the solvent was evaporated to dryness with a nitrogen stream. The extracted lipid residue was redissolved in 50 μl of a solution containing carrier oleic acid (0.2 mg/ml) of chloroform-methanol [9 to 1, v/v]). The whole lipid extract was applied to a preactivated (30 minutes at 110° C.) silica gel-impregnated glass fiber thin layer chromatography sheet (ITLC type SG sheet from Gelman Sciences, Inc., Ann Arbor, Mich.) using hexane-acetic acid (100 to 1, v/v) as the developing solvent. This TLC system rapidly (6 minutes) resolved the enzymatically released product, ^14 C-oleic acid, from the unreacted ^14 C-phospholipid substrate. The unsaturated lipids were located on the chromatogram by a brief exposure to iodine vapor. […] A control incubation of substrate in the absence of HSF-PLA2 was performed in each experiment.

PLA2 Rat Paw Edema = assay: Phospholipase A2 Rat Paw Edema; type: in vivo, Lewis rats; conditions: Rattus norvegicus; 2 hr; 30 mg/kg; read-out: % Inhib of PLA2 Rat Paw Edema 2 hr (30 mg/kg)
Protocol: Phospholipase A2 Rat Paw Edema
Representation compounds of the invention were tested in rats to determine their ability to inhibit the acute inflammatory response induced by the injection of snake venom phospholipase A2. Test compounds are administered intraperitoneally or orally to groups of seven Lewis rats (≈200 gm) 1 hr prior to phospholipase A2 administration. The test compounds are dissolved in dimethyl sulfoxide for intraperitoneal administration and dissolved or suspended in Labrafil M-1944CS for oral administration. At 0 hr, 5 ug (10 units) of purified phospholipase A2 from Naja naja venom (Sigma Chem. Co.) dissolved in 0.1 mL of pyrogen free saline is injected subplantarly into the right hind paw to elicit the inflammatory response. The volume (in mL) of the right hind paw is measured by immersion of the paw to the level of the lateral malleolus in an aqueous plethysmometer immediately prior to the injection of phospholipase A2 and then at 0.5, 2 and 4 hr after phospholipase A2 injection. The paw edema is calculated by subtracting the zero time reading from the readings taken after injection. The percent change of the edema volume from the vehicle treated control is calculated to determine the activity of the test compound. Statistical analysis of the mean paw edema values of the control versus the treated groups is performed using Student's t-test. Significance of changes from mean value for vehicle-treated animals (*p<0.05, **p<0.01, ***p<0.001, ns/not significant).

[1] = system: Croton Oil Mouse Ear Edema; assay: Croton Oil Mouse Ear Edema Test; type: in vivo, CD-1 mice; conditions: topical, coapplied, 6 hours
Protocol: Twenty five μl of a 1% croton oil solution [dissolved in a mixture of pyridine/water/diethyl ether at a ratio of 5/20/75 (croton oil vehicle)] are applied to the outer side of the right ear of 3-4 week old made CD-1 mice (8 animals per group). The test compounds are dissolved directly in the 1% croton oil solution at various concentrations and coapplied. Control animals receive 25 μl of croton oil vehicle on the right ear. Biopsy punches are removed at 6 hours from the right ear of the animals using a 6 mm skin trephine (Roboz, Washington, D.C.) and the wet weight of the ear punches is determined. The weight of the biopsy punches is a measure of ear inflammation, primarily edema. The data are expressed as percent inhibition relative to control groups.

[2] = read-out: Inhib of HSF-PLA2, % inhibition

| inhibition at 10 µM (HSF-PLA2; (10 μM), read-out: Inhib of HSF-PLA2, % inhibition) [%] | SMILES | pIC50 (HSF-PLA2) | inhibition in vivo at 30 mg/kg (PLA2 Rat Paw Edema) [%] | % Inhib of Croton Oil Mouse Ear Edema (1 mg) [1] [%] | inhibition at 1 µM (HSF-PLA2; [2]) [%] |
| --- | --- | --- | --- | --- | --- |
| – | O=C(O)CN(CC(=O)O)c1cc(OCCCc2ccccc2)cc(OCCCc2ccccc2)c1 [Example 6g, N-(carboxymethyl)-N-[3,5-bis(3-phenylpropoxy)phenyl]glycine] | 5.89 | 26 | – | – |
| – | CCCCCCCCCCCCCCNC(=O)c1cc(C(=O)NCCCCCCCCCCCCCC)cc(N(CC(=O)O)CC(=O)O)c1 [Example 6q, N-(carboxymethyl)-N-[3,5-bis[(tetradecylamino)carbonyl]phenyl]glycine] | 6.52 | 0 | – | – |
| – | CCCCCCCCCCOc1cc(OCCCCCCCCCC)cc(N(CC(=O)O)CC(=O)OC)c1 [Example 31, N-(2-Methoxy-2-oxoethyl)-N-[3,5-bis(decyloxy)phenyl]glycine] | – | 21 | 50 | – |
| – | CCCCCCCCCCCCCCCc1cccc(OCCCOc2cccc(N(CC(=O)O)CC(=O)O)c2)c1 [Example 36i, N-(carboxymethyl)-N-[3-{3-(3-pentadecylphenoxy)propoxy]phenyl]glycine] | 6.40 | 7 | – | – |
| – | CCCCc1ccc(N(CC(=O)O)CC(=O)O)cc1 [Example 39b, N-(carboxymethyl)-N-(4-butylphenyl)glycine] | 3.58 | -9 | – | – |
| – | CCCCCCCCCCCCCCCCCCOc1cc(OCCCOc2ccc(C(=O)O)cc2)cc(N(CC(=O)O)CC(=O)O)c1 [Example 58p] | 6.22 | – | 0 | – |
| – | CCCCCCCCCCCCCCCCCCOc1cc(NC(C)=O)cc(N(CC(=O)O)CC(=O)O)c1 [Example 98] | – | 51 | – | 98 |
| – | CCCCCCCCCCCCCC(=O)Oc1ccc(N(CC(=O)O)CC(=O)O)cc1OC(=O)CCCCCCCCCCCCC [Example 119b, N-(carboxymethyl)-N-[3,4-bis[(1-oxotetradecyl)oxy]phenyl]glycine] | – | – | 75 | 80 |
| – | CCCCCCCCCCCCCCCCCCNC(=O)Oc1ccc(N(CC(=O)O)CC(=O)O)cc1OC(=O)NCCCCCCCCCCCCCCCCCC [Example 119d, N-(carboxymethyl)-N-[3,4-bis[[(octadecylamino)carbonyl]oxy]phenyl]glycine] | – | – | 14 | 19 |
| – | CCCCCCCCCCCCCCNC(=O)Oc1ccc(N(CC(=O)O)CC(=O)O)cc1OC(=O)NCCCCCCCCCCCCCC [Example 119e, N-(carboxymethyl)-N-[3,4-bis[[(tetradecylamino)carbonyl]oxy]phenyl]glycine] | – | – | 0 | 33 |
| 55 | CCCCCCCCCCCCCCCCCCOc1cccc(NCC(=O)O)c1 [Example 125, N-[3-(Octadecyloxy)phenyl]glycine] | – | – | 75 | – |
| – | CCCCCCCCCCOc1cc(OCCCCCCCCCC)cc(N(CC(=O)OCOC(C)=O)CC(=O)OCOC(C)=O)c1 [Example 132, N-[2-[(Acetyloxy)methoxy]-2-oxoethyl]-N-[3,5-bis(decyloxy)phenyl]glycine (acetyloxy)methyl ester] | – | – | 36 | – |
| – | CCCCCCCCCCCCCCCCCCOc1cc(OCCOCCOCCOCCOC)cc(N(CC(=O)O)CC(=O)O)c1 [Example 156, N-(Carboxymethyl)-N-[3-[2-[2-(2-methoxyethoxy)ethoxy]ethoxy]ethoxy]-5-(octadecyloxy)phenyl glycine] | – | 29 | – | 100 |
| – | CCCCCCCCCCCCCCCCCCOc1cc(SC)cc(N(CC(=O)O)CC(=O)O)c1 [Example 166, N-(Carboxymethyl)-N-[3-(methylthio)-5-(octadecyloxy)phenyl]glycine] | – | 31 | – | 88 |
| – | CCCCCCCCCCCCCCCCCCOc1cc(N(CC(=O)O)CC(=O)O)cc([S+](C)[O-])c1 (centres unmarked) [Example 172, N-(Carboxymethyl)-N-[3-(methylsulfinyl)-5-(octadecyloxy)phenyl]glycine] | – | 43 | – | 39 |
